# According to patent EP1477475A1, “Compounds for use as a medicine increasing the contractility of a heart, a heart muscle or cells of a heart muscle” (Procorde GmbH, priority 2003, dated 2004):
# “Also recorded” adds a separate entry of the source.
# Tests used:
# [1] = test system: Gβγ-dependent activity of G protein-coupled receptor kinase 2 (GRK-2); assay: Rhodopsin phosphorylation assay (Gβγ-dependent GRK-2 activity); type: biochemical, bovine
# Experimental: All substances derived from the virtual screen were tested for their ability to inhibit the Gβγ-dependent activity of G protein-coupled receptor kinase 2 (GRK-2) in a rhodopsin phosphorylation assay. Stock solutions of 10mM of all compounds were dissolved in DMSO, for all assays (in vitro and cellular) DMSO was added in the same amount to the respective control group. The initial compound screen was carried out in a 96 well plate formate. The assay mix contained 15µM ATP, 10mM MgCl2, 20nM Gβγ (from bovine brain), 60nM GRK-2(purified from baculoviral culture), ^32P-ATP (approximately 200.000 cpm/assay point) and 10µM of the respective compound in 50µl assay buffer (20mM Hepes pH 7.2, 2mM EDTA); 600nM rhodopsin (purified from bovine retina) was added in the dark. Stimulation was achieved by incubation for 10-15 min under yellow light. Subsequently, the mix was aspirated with a cell harvester and applied onto a glass-fiber membrane (GF/C); then, the assay plate was washed 10 times with 10ml assay buffer each. The membrane was counted in a Wallac counter (Cerenkov). Additionally, 45µl of the assay mix were counted to determine the total amount of radioactivity in the assay. […]
# To test the ability of the compounds to inhibit Gβγ-dependent signalling a rhodopsin phosphorylation assay may be used. […] The effect of different compound concentrations may be determined in the same assay. […]
# [2] = test system: isolated rabbit cardiomyocytes; assay: Measurement of cell shortening of isolated cardiomyocytes; type: cell-based; conditions: Figure 10; 10 µM COM1 for 10 minutes, then isoproterenol 1x10^-9 - 1x10^-7M; n = 8 cells per group
# Experimental: Female New Zealand White rabbits (12 weeks old) were anesthesized with thiopental (75-1 00mg/kg) and 500 U heparin were injected intravenously. The thorax was opened and the heart was excised and put into ice-cold NaCl solution (0.9%). Fat and pericardium were removed. The aorta was attached to a perfusion system connected to a pump and the heart was retrogradely pefused at a flow rate of 20-40 ml/min with oxygenated (95% oxygen, 5% CO2) Powell medium (110mM NaCl, 2.5mM KCI, KH2PO4 1.2 mM, MgSO4 1.2 mM, NaHCO3 25 mM, Glucose 11 mM; pH 7.4) until all blood was washed out. […]
# Cell shortening was measured with an electro-optical monitoring system connected to an online digitalized assessment of amplitude and velocity of shortening and relaxation (Scientific Instruments). […] Cell shortening was monitored using an edge detection camera and the data were transferred to a computer and fractional shortening was calculated for a single cell.
# Overexpression of proteins which can bind Gβγ subunits, such as phosducin or the C-terminus of GRK-2, result in an increased contractility of cardiomyocytes. Therefore, the compounds' effects on this important parameter were determined. In isolated rabbit cardiomyocytes, basal, compound-incubated and isoproterenol- stimulated contractility were measured and expressed as fractional shortening of the single cell.
# [3] = test system: native M1 receptor in HEK 293 cells; assay: Calcium measurements (Fura-2) in HEK 293 cells after carbachol (Gq-coupled pathway); type: cell-based; conditions: Figure 8; 30 µM compound, 30 minutes pre-incubation; 100 µM carbachol
"Reversal of inhibition of Gβγ-dependent GRK-2 activity by increasing concentrations of the substrate rhodopsin ([1]; Figure 4, GRK-2 50 nM, COM1 30 µM, rhodopsin 10-3000 nM)",SMILES,"Isoproterenol-stimulated contractility (fractional shortening, contraction amplitude) [2]","Effect of increasing concentrations of Gβγ on the inhibition of GRK-2-mediated phosphorylation of rhodopsin ([1]; Figure 3, COM2 3µM, GRK-2 50nM, rhodopsin 100nM, Gβγ 3 to 1000 nM, result at 1000 nM Gβγ)",Calcium release mediated via the Gq-coupled pathway [3]
can be reversed,"O=C(Nc1ccc(-c2ccc(NC(=O)c3ccc(F)cc3)c(C(=O)O)c2)cc1C(=O)O)c1ccc(F)cc1 [COM1, 4,4'-bis[(4-fluorobenzoyl)amino][1,1'-biphenyl]-3,3'-dicarboxylic acid]",positive inotropic effect,,
,"O=C(Nc1ccccc1C(=O)O)c1ccc2c(c1)C(=O)N(c1ccc(Oc3ccc(N4C(=O)c5ccc(C(=O)Nc6ccccc6C(=O)O)cc5C4=O)cc3)cc1)C2=O [COM2, 2-[({2-[4-(4-{5-[(2-carboxyanilino)carbonyl]-1,3-dioxo-1,3-dihydro-2H-isoindol-2-yl}phenoxy)phenyl]-1,3-dioxo-2,3-dihydro-1H-isoindol-5-yl}carbonyl)amino]benzoic acid]",,completely blunted; also recorded: completely reversed,does not have an effect
,"O=C(C=Cc1ccco1)Nc1ccc(-c2ccc(NC(=O)C=Cc3ccco3)c(C(=O)O)c2)cc1C(=O)O [COM3, 4,4'-bis{[3-(2-furyl)acryloyl]amino}[1,1'-biphenyl]-3,3'-dicarboxylic acid]",,,displays an inhibitory potential
